Here are results for three compounds from patent publication US20060004102A1, “Polymorphic forms of nateglinide” (priority 2004, published 2006).

Structures are written as SMILES. Structures can show the parent of a compound that is named as a salt. Where two headings read alike, the source gives them in different places.

For data set [1] the following is noted: DSC, according to U.S. Pat. No. 5,463,116; cited from earlier work.
The nature of data set [2]: Solubility of nateglinide in solvents. Conditions: mixture of methanol, water and a base (source of ammonium ions). It is filed as physicochemical.
For data set [3] the following is noted: cited from earlier work.

Take `CC(C)[C@H]1CC[C@H](C(=O)N[C@H](Cc2ccccc2)C(=O)O)CC1` [B-type, nateglinide]: the “stability of crystal form during grinding” value in data set [1] is “unstable and susceptible to change during grinding”.
With `CC(C)[C@H]1CC[C@H](C(=O)N[C@H](Cc2ccccc2)C(=O)O)CC1` [Form Phi, nateglinide ammonium salt], the solubility result in data set [2] is on record as “relatively insoluble”.
As for `CC(C)[C@H]1CC[C@H](C(=O)N[C@H](Cc2ccccc2)C(=O)O)CC1` [nateglinide, (−)-N-(trans-4-isoporpylcyclohexanecarbonyl)-D-Phenylalanine], the solubility result is “sparingly soluble” in data set [3] (in acetonitrile); “freely soluble” in data set [3] (in chloroform); “freely soluble” in data set [3] (in ethanol); “soluble” in data set [3] (in ether); “freely soluble” in data set [3] (in methanol); “sparingly soluble” in data set [3] (in octanol). Also, the solubility result in data set [3] (in water) is “practically insoluble”; in data set [3] (in water, listed as Nateglinide), “insoluble”.
